Experimental data published in patent publication US11225505B2, “Antimicrobial polymyxin derivative compounds” (MONASH UNIVERSITY, priority 2015, dated 2022).
Converted amounts (≈) assume the structure as drawn. Where a SMILES comes first, the peptide text is derived from it. Bridges are numbered along the chain shown (N, C = ends). [ ]: non-standard residue; d: D form. The star is where a group is joined. X35 = O=C(c1cc(-c2ccc(Cl)cc2)on1)*; X49 = O=C(c1cnc(C(F)(F)F)nc1)*; X11 = Cn1nc(C(=O)*)c2ccccc21; X56 = Cn1cc(C(=O)*)c2ccccc21; Dab = NCC[C@H](N)C(=O)O; Abu = CC[C@H](N)C(=O)O; Dap = NC[C@H](N)C(=O)O

How the values were obtained:
Format in all cases: cell-based
[1] = test system: Pseudomonas aeruginosa FADDI-PA022; details: FADDI-PA022
In short: (§1)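 Following CLSI procedure M100-S24, minimum inhibitory concentrations of trifluoroacetate lipopeptides are measured in cation-adjusted Mueller-Hinton medium by broth microdilution, alongside a polymyxin B sulphate control.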

[2] = test system: Acinetobacter baumannii ATCC 17978; details: ATCC 17978
In short: as §1

[3] = test system: Pseudomonas aeruginosa ATCC 27853; details: ATCC 27853
In short: as §1

[4] = test system: Enterobacter cloacae FADDI-EC001; details: FADDI-EC001
In short: as §1

[5] = test system: Klebsiella pneumoniae Kp BM1; details: Kp BM1
In short: as §1

[6] = test system: Klebsiella pneumoniae FADDI-KP032; details: FADDI-KP032
In short: as §1

[7] = test system: Pseudomonas aeruginosa FADDI-PA01; details: FADDI-
In short: as §1

[8] = test system: Enterobacter cloacae FADDI-EC006; details: FADDI-EC006
In short: as §1

[9] = test system: Pseudomonas aeruginosa FADDI-PA038; details: FADDI-PA038
In short: as §1

[10] = test system: Klebsiella pneumoniae FADDI-KP022; details: FADDI-KP022
In short: as §1

[11] = test system: Acinetobacter baumannii FADDI-AB034; details: FADDI-AB034
In short: as §1

[12] = test system: Enterobacter cloacae FADDI-EC003; details: FADDI-EC003
In short: as §1

[13] = test system: Acinetobacter baumannii FADDI-AB030; test: microbe, parasite or virus in culture; details: FADDI-AB030
In short: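 Lipopeptide TFA salts tested against the multidrug-resistant clinical isolate by CLSI (M100-S24) broth microdilution in cation-adjusted Mueller-Hinton broth, with polymyxin B sulphate as control; MIC read.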

Row | SMILES | Minimum inhibitory concentration [1] [µg/mL] | Minimum inhibitory concentration [2] [µg/mL] | Minimum inhibitory concentration [3] [µg/mL] | Minimum inhibitory concentration [4] [µg/mL] | Minimum inhibitory concentration [5] [µg/mL] | Minimum inhibitory concentration [6] [µg/mL] | Minimum inhibitory concentration [7] [µg/mL] | Minimum inhibitory concentration [8] [µg/mL] | Minimum inhibitory concentration [9] [µg/mL] | Minimum inhibitory concentration [10] [µg/mL] | Minimum inhibitory concentration [11] [µg/mL] | Minimum inhibitory concentration [12] [µg/mL] | Minimum inhibitory concentration [13] [µg/mL]
1 | CC[C@@H]1NC(=O)[C@@H](CC(C)C)NC(=O)[C@H](CCN)NC(=O)[C@@H](NC(=O)[C@H](CN)NC(=O)[C@@H](NC(=O)[C@H](CCN)NC(=O)c2nn(C)c3ccccc23)[C@@H](C)O)CCNC(=O)[C@H]([C@@H](C)O)NC(=O)[C@H](CCN)NC(=O)[C@H](CCN)NC1=O [Compound 51] (X11-[Dab]T[Dap][Dab][Dab][dL][Abu][Dab][Dab]T; lactam 4-C) | 0.25 (≈ 0.218 µM) | 0.25 (≈ 0.218 µM) | 0.25 (≈ 0.218 µM) | <0.125 | <0.125 | <0.125 | 0.25 (≈ 0.218 µM) | 0.5 (≈ 0.437 µM) | 1 (≈ 0.873 µM) | <0.125 | 0.25 (≈ 0.218 µM) | 0.25 (≈ 0.218 µM) | <0.125
2 | CC[C@@H]1NC(=O)[C@@H](CC(C)C)NC(=O)[C@H](CCN)NC(=O)[C@@H](NC(=O)[C@H](CN)NC(=O)[C@@H](NC(=O)[C@H](CCN)NC(=O)c2cnc(C(F)(F)F)nc2)[C@@H](C)O)CCNC(=O)[C@H]([C@@H](C)O)NC(=O)[C@H](CCN)NC(=O)[C@H](CCN)NC1=O [Compound 45] (X49-[Dab]T[Dap][Dab][Dab][dL][Abu][Dab][Dab]T; lactam 4-C) | 0.25 (≈ 0.215 µM) | 2 (≈ 1.72 µM) | 0.25 (≈ 0.215 µM) | <0.125 | 0.5 (≈ 0.431 µM) | 0.5 (≈ 0.431 µM) | <0.125 | 2 (≈ 1.72 µM) | 1 (≈ 0.861 µM) | <0.125 | 0.5 (≈ 0.431 µM) | 2 (≈ 1.72 µM) | 0.5 (≈ 0.431 µM)
3 | CC[C@@H]1NC(=O)[C@@H](CC(C)C)NC(=O)[C@H](CCN)NC(=O)[C@@H](NC(=O)[C@H](CN)NC(=O)[C@@H](NC(=O)[C@H](CCN)NC(=O)c2cc(-c3ccc(Cl)cc3)on2)[C@@H](C)O)CCNC(=O)[C@H]([C@@H](C)O)NC(=O)[C@H](CCN)NC(=O)[C@H](CCN)NC1=O [Compound 94] (X35-[Dab]T[Dap][Dab][Dab][dL][Abu][Dab][Dab]T; lactam 4-C) | 0.5 (≈ 0.419 µM) | 1 (≈ 0.838 µM) | 0.5 (≈ 0.419 µM) | 0.25 (≈ 0.21 µM) | 0.5 (≈ 0.419 µM) | <0.125 | 0.5 (≈ 0.419 µM) | <0.125 | 1 (≈ 0.838 µM) | <0.125 | 0.5 (≈ 0.419 µM) | 0.25 (≈ 0.21 µM) | 0.25 (≈ 0.21 µM)
4 | CC[C@@H]1NC(=O)[C@@H](CC(C)C)NC(=O)[C@H](CCN)NC(=O)[C@@H](NC(=O)[C@H](CN)NC(=O)[C@@H](NC(=O)[C@H](CCN)NC(=O)c2cn(C)c3ccccc23)[C@@H](C)O)CCNC(=O)[C@H]([C@@H](C)O)NC(=O)[C@H](CCN)NC(=O)[C@H](CCN)NC1=O [Compound 63] (X56-[Dab]T[Dap][Dab][Dab][dL][Abu][Dab][Dab]T; lactam 4-C) | 0.25 (≈ 0.218 µM) | 1 (≈ 0.874 µM) | 0.5 (≈ 0.437 µM) | <0.125 | <0.125 | <0.125 | <0.125 | 2 (≈ 1.75 µM) | 0.5 (≈ 0.437 µM) | <0.125 | 1 (≈ 0.874 µM) | 2 (≈ 1.75 µM) | 0.5 (≈ 0.437 µM)
